Legend:
Details in all cases: 72 h
Caco-2 [1] = assay: cell viability relative to DMSO; higher = less toxic
Calu-3 [2] = assay: as above
U2OS [3] = assay: as above
Vero E6 [4] = assay: as above
Caco-2 [5] = assay: relative viability EC50 (midpoint between 100% and the lowest measured viability); higher = less toxic
Calu-3 [6] = assay: as above
U2OS [7] = assay: as above
Vero E6 [8] = assay: as above
Caco-2 [9] = assay: drug sensitivity score (DSS) for viability; higher = more toxic; extreme values may be limits of the assay
Calu-3 [10] = assay: as above
U2OS [11] = assay: as above
Vero E6 [12] = assay: as above
HepG2 [13] = assay: cell viability relative to DMSO; higher = less toxic
HepG2 [14] = assay: drug sensitivity score (DSS) for viability; higher = more toxic; extreme values may be limits of the assay

Row | Structure (SMILES) | cell viability (Caco-2 [1]; 1 nM) [%] | cell viability (Caco-2 [1]; 10 nM) [%] | cell viability (Caco-2 [1]; 100 nM) [%] | cell viability (Caco-2 [1]; 1000 nM) [%] | cell viability (Caco-2 [1]; 10000 nM) [%] | cell viability (Calu-3 [2]; 1 nM) [%] | cell viability (Calu-3 [2]; 10 nM) [%] | cell viability (Calu-3 [2]; 100 nM) [%] | cell viability (Calu-3 [2]; 1000 nM) [%] | cell viability (Calu-3 [2]; 10000 nM) [%] | cell viability (U2OS [3]; 1 nM) [%] | cell viability (U2OS [3]; 10 nM) [%] | cell viability (U2OS [3]; 100 nM) [%] | cell viability (U2OS [3]; 1000 nM) [%] | cell viability (U2OS [3]; 10000 nM) [%] | cell viability (Vero E6 [4]; 1 nM) [%] | cell viability (Vero E6 [4]; 10 nM) [%] | cell viability (Vero E6 [4]; 100 nM) [%] | cell viability (Vero E6 [4]; 1000 nM) [%] | cell viability (Vero E6 [4]; 10000 nM) [%] | relative viability EC50 (Caco-2 [5]) [µM] | relative viability EC50 (Calu-3 [6]) [µM] | relative viability EC50 (U2OS [7]) [µM] | relative viability EC50 (Vero E6 [8]) [µM] | drug sensitivity score (Caco-2 [9]) | drug sensitivity score (Calu-3 [10]) | drug sensitivity score (U2OS [11]) | drug sensitivity score (Vero E6 [12]) | cell viability (HepG2 [13]; 1 nM) [%] | cell viability (HepG2 [13]; 10 nM) [%] | cell viability (HepG2 [13]; 100 nM) [%] | cell viability (HepG2 [13]; 1000 nM) [%] | cell viability (HepG2 [13]; 10000 nM) [%] | drug sensitivity score (HepG2 [14])
1 | Cc1ccccc1NC(=O)Nc1ccc(CC(=O)N(C)[C@@H](CC(C)C)C(=O)NCC[C@H](NC(=O)[C@@H]2CCCN2S(=O)(=O)c2cc(Cl)cc(Cl)c2)C(=O)O)cc1 [BIO-5192] | 98 | 97.3 | 90.5 | 99.5 | 96.8 | 104 | 102 | 96.5 | 108 | 104 | 102 | 96.2 | 95.1 | 105 | 97.6 | 98.3 | 93.9 | 93.1 | 96.7 | 109 | > 10 | > 10 | > 10 | > 10 | 0 | 0 | 0 | 0 |  |  |  |  |  | 
2 | N#C/C(=C\c1ccc(O)c(O)c1)C(=O)Nc1ccccc1 [tyrphostin-AG-494] | 110 | 99.8 | 104 | 95.7 | 88.3 | 93.5 | 102 | 95.1 | 101 | 107 | 105 | 102 | 99.2 | 97.3 | 93.1 | 104 | 100 | 104 | 105 | 90.6 | > 10 | > 10 | > 10 | > 10 | 0.2 | 0 | 0 | 0 | 101 | 102 | 98.6 | 110 | 54.6 | 1.8
3 | O=C1OC2(c3ccccc31)c1cc(I)c(O)c(I)c1Oc1c2cc(I)c(O)c1I [erythrosine] | 99.2 | 98.7 | 102 | 93.8 | 51.9 | 102 | 104 | 113 | 86.6 | 53.6 | 94.6 | 91.7 | 97 | 88.7 | 57.3 | 87.3 | 96.4 | 98.7 | 81.6 | 64.5 |  |  |  |  | 3.6 | 4.4 | 3.9 | 3.7 | 104 | 109 | 97.6 | 103 | 53.4 | 2.2
4 | Cc1cc(C)nc(SCC(=O)Nc2ncc(Cc3cccc4ccccc34)s2)n1 [SirReal-2] | 104 | 101 | 93.4 | 99.6 | 96.6 | 97 | 95.7 | 95.1 | 91 | 102 | 94.7 | 103 | 96.6 | 101 | 92.8 |  |  |  |  |  | > 10 | > 10 | > 10 |  | 0 | 0 | 0 |  |  |  |  |  |  | 
5 | CN(C)CCN(Cc1cccs1)c1ccccn1 [methapyrilene] | 103 | 95.2 | 94.2 | 104 | 107 | 101 | 101 | 92.6 | 89.3 | 89.7 | 102 | 102 | 97.9 | 102 | 96.7 | 98.1 | 99.9 | 101 | 96.4 | 96.3 | > 10 | > 10 | > 10 | > 10 | 0 | 0.3 | 0 | 0 |  |  |  |  |  | 
6 | Cc1cc(O)c(C(=O)N[C@@H](C(=O)N[C@@H]2C(=O)N3C(C(=O)O)=C(CSc4nnnn4C)CS[C@H]23)c2ccc(O)cc2)cn1 [cefpiramide] | 94.2 | 106 | 116 | 110 | 95.3 | 99 | 102 | 108 | 106 | 98 | 93.4 | 98.3 | 96.5 | 99.5 | 101 | 101 | 94.1 | 100 | 104 | 96.3 | > 10 | > 10 | > 10 | > 10 | 0 | 0 | 0 | 0 |  |  |  |  |  | 
7 | CC(C)C[C@@H](C(=O)N[C@@H](Cc1ccc(OCc2ccccc2)cc1)C(=O)NC(C)(C)C)N(C)Cc1ccc(C(C)(C)C)cc1 | 88.8 | 95.9 | 94.1 | 100 | 87.5 | 93.4 | 105 | 97.5 | 111 | 87.8 | 97.4 | 101 | 97.5 | 101 | 85.5 | 103 | 103 | 106 | 97.8 | 95.7 | > 10 | > 10 | > 10 | > 10 | 0 | 0 | 0.1 | 0 | 107 | 101 | 93.5 | 99.1 | 68 | 1.6
8 | COc1ccccc1S(=O)(=O)Nc1ccc2c(c1)CN(C)C(=O)N2 [PFI-1] | 102 | 102 | 107 | 94 | 75.7 | 102 | 92.6 | 102 | 88 | 58.2 |  |  |  |  |  | 102 | 102 | 96.2 | 81.5 | 16.3 | > 10 |  |  | 1.65 | 1.7 | 3.9 |  | 7.6 | 108 | 103 | 94.3 | 94.4 | 50.1 | 3.6
9 | NCC(=O)Nc1ccc(-n2nc(C(F)(F)F)cc2-c2ccc3c(ccc4ccccc43)c2)cc1 [AR-12] | 96.8 | 91 | 87.9 | 96.8 | 92.1 | 103 | 98.2 | 98.9 | 102 | 45.4 | 89.7 | 98.9 | 95 | 100 | 89 | 97.4 | 94.3 | 95.7 | 80.4 | 68.2 | > 10 | 3.39 | > 10 |  | 0 | 2.7 | 0 | 3.5 | 110 | 96.1 | 103 | 105 | 71.5 | 0.9
10 | CC/C(=C(\c1ccccc1)c1ccc(OCCN(C)C)cc1)c1ccccc1 [tamoxifen] |  |  |  |  |  | 103 | 95.5 | 94.7 | 86 | 52.7 | 94.6 | 102 | 93 | 97.2 | 87.6 | 98.9 | 90 | 93.3 | 86.9 | 58.9 |  |  | > 10 |  |  | 4.2 | 0 | 3.4 | 105 | 106 | 105 | 102 | 73.3 | 0.9
11 | COc1cc2/c(=N/c3ccc(Br)cc3F)nc[nH]c2cc1OCC1CCN(C)CC1 [vandetanib] | 109 | 105 | 86 | 88.4 | 57.2 | 101 | 95.3 | 85.7 | 66.2 | 13.4 |  |  |  |  |  | 104 | 100 | 98.3 | 72.9 | 20.6 |  | 1.24 |  | 1.3 | 3.3 | 8.7 |  | 8.2 | 113 | 106 | 110 | 96.7 | 74 | 1.5
12 | CN(C[C@@H]1COCCO1)S(=O)(=O)Nc1ccc2ccc3ncc(-c4cnn(C)c4)cc3c(=O)c2c1 [MK-2461] | 103 | 97.9 | 94.5 | 99.7 | 64.5 | 81.9 | 89 | 84 | 90.7 | 93.9 | 89.1 | 98.8 | 99.2 | 96.9 | 64.1 | 103 | 97.7 | 97.3 | 93.2 | 59.7 |  | > 10 |  |  | 1.7 | 0 | 2.2 | 3.1 | 96.6 | 96.6 | 96.5 | 91.4 | 58.6 | 3.5
13 | CC(C)(C)NCC(O)c1cc(Cl)c(N)c(Cl)c1 (configuration not stated) [clenbuterol] | 93.7 | 89.9 | 103 | 90.8 | 117 | 108 | 85.1 | 100 | 93.7 | 97.4 | 97.6 | 95 | 105 | 98.2 | 96.9 | 95.3 | 101 | 97.8 | 104 | 112 | > 10 | > 10 | > 10 | > 10 | 0 | 0 | 0 | 0 |  |  |  |  |  | 
14 | Clc1cccc(Cl)c1NC1=NCCN1 [clonidine] | 95.3 | 95.6 | 96.1 | 84.1 | 94 | 98.4 | 87.9 | 90.4 | 87 | 88.8 | 103 | 103 | 95.9 | 101 | 98.5 | 95.6 | 101 | 102 | 99.3 | 95.2 | > 10 | > 10 | > 10 | > 10 | 0 | 2.3 | 0 | 0 |  |  |  |  |  | 
15 | CCC(=O)O[C@H](CC(=O)O)C[N+](C)(C)C [levocarnitine-propionate] | 94.7 | 103 | 98.7 | 108 | 98.5 | 87.9 | 108 | 97.9 | 100 | 85.8 |  |  |  |  |  | 106 | 105 | 99.2 | 100 | 104 | > 10 | > 10 |  | > 10 | 0 | 0.2 |  | 0 |  |  |  |  |  | 
16 | FC(F)OC(F)(F)C(F)Cl (configuration not stated) [enflurane] | 96.9 | 104 | 98.3 | 103 | 107 | 85.1 | 94.2 | 85.6 | 101 | 103 |  |  |  |  |  | 94.7 | 103 | 98.4 | 104 | 103 | > 10 | > 10 |  | > 10 | 0 | 0 |  | 0 |  |  |  |  |  | 

Source: the supplement of paper PMC13380429
